From US7371766B2, “Curcumin analogs with anti-tumor and anti-angiogenic properties” (Emory University, priority 1999, dated 2008)
Read-outs that look alike come from different tables or passages of the source.

Experiments:
SK-MEL-2 = assay: cells; conditions: Homo sapiens, SK-MEL-2, 48 h
SNB-75 = assay: cells; conditions: Homo sapiens, SNB-75, 48 h
NCI-H226 = assay: cells; conditions: Homo sapiens, NCI-H226, 48 h
RPMI-7951 human melanoma = assay: Neutral Red Assay, cell viability, RPMI-7951; conditions: Homo sapiens
KM12 = assay: cells; conditions: Homo sapiens, KM12, 48 h
MDA-MB-435 = assay: cells; conditions: Homo sapiens, MDA-MB-435, 48 h
OVCAR-5 = assay: cells; conditions: Homo sapiens, OVCAR-5, 48 h
SK-MEL-28 = assay: cells; conditions: Homo sapiens, SK-MEL-28, 48 h
UACC-257 = assay: cells; conditions: Homo sapiens, UACC-257, 48 h
DU-145 = assay: cells; conditions: Homo sapiens, DU-145, 48 h
SF-268 = assay: cells; conditions: Homo sapiens, SF-268, 48 h
NCI-H23 = assay: cells; conditions: Homo sapiens, NCI-H23, 48 h
786-0 = assay: cells; conditions: Homo sapiens, 786-0, 48 h
MALME-3M = assay: cells; conditions: Homo sapiens, 48 h
SNB-19 = assay: cells; conditions: Homo sapiens, SNB-19, 48 h
SK-OV-3 = assay: cells; conditions: Homo sapiens, SK-OV-3, 48 h
RPMI-8226 = assay: cells; conditions: Homo sapiens, RPMI-8226, 48 h, read-out: Median Growth Inhibitory Concentration (GI50)
SR = assay: cells; conditions: Homo sapiens, 48 h
UO-31 = assay: cells; conditions: Homo sapiens, UO-31, 48 h
MDA-N = assay: cells; conditions: Homo sapiens, 48 h
SN12C = assay: cells; conditions: Homo sapiens, 48 h
[1] = test system: Sixty human tumor cell lines; assay: cells; conditions: 48 h
[2] = test system: Vascular Endothelial Growth Factor (VEGF) production by human melanoma cell line RPMI-7951; assay: VEGF ELISA, RPMI-7951; conditions: for VEGF ELISA / VEGF: RPMI-7951; for VEGF ELISA: DMSO control 3713
HCC-2998 = assay: cells; conditions: Homo sapiens, HCC 2998, 48 h
OVCAR-3 = assay: cells; conditions: Homo sapiens, OVCAR-3, 48 h
IGROV1 = assay: cells; conditions: Homo sapiens, IGROV-1, 48 h
SF-539 = assay: cells; conditions: Homo sapiens, SF-539, 48 h
[3] = read-out: Median Growth Inhibitory Concentration (GI50)
[4] = read-out: Median Lethal Concentration (LC50)
[5] = RPMI-7951, 72 h, read-out: Neutral Red Uptake, %
[6] = RPMI-7951, read-out: Cell Viability
[7] = Homo sapiens, RPMI-7951, 72 h, read-out: VEGF

With `COc1cc(/C=C/C(=O)CC(=O)/C=C/c2ccc(O)c(OC)c2)ccc1O` [Curcumin] as the compound, how does the GI50 (SK-MEL-2; [3]) read?
The GI50 was 15.8 µM.

And the CC50 (SK-MEL-2; [4])?
Its CC50 is 79.4 µM.

What about the GI50 (SNB-75; [3]) of the same compound?
The GI50 was 6.3 µM.

And the CC50 (SNB-75; [4])?
The CC50 was 50.1 µM.

And the GI50 (NCI-H226; [3])?
Its GI50 is 20 µM.

And the CC50 (NCI-H226; [4])?
Its CC50 is under 100 µM.

And the viability at 5 µM (RPMI-7951 human melanoma; [5])?
Its viability at 5 µM is 100%.

What about the viability at 20 µM (RPMI-7951 human melanoma; [5]) of the same compound?
The viability at 20 µM was 14%.

What about the viability at 5 µM (RPMI-7951 human melanoma; [6]) of the same compound?
The viability at 5 µM was 105%.

And the viability at 20 µM (RPMI-7951 human melanoma; [6])?
Its viability at 20 µM is 47%.

What about the GI50 (KM12; [3]) of the same compound?
Its GI50 is 5 µM.

What about the CC50 (KM12; [4]) of the same compound?
Its CC50 is 63.1 µM.

What about the GI50 (MDA-MB-435; [3]) of the same compound?
The GI50 was 3.2 µM.

What about the CC50 (MDA-MB-435; [4]) of the same compound?
The CC50 was 39.8 µM.

And the GI50 (OVCAR-5; [3])?
The GI50 was 15.8 µM.

And the CC50 (OVCAR-5; [4])?
The CC50 was 79.4 µM.

And the GI50 (SK-MEL-28; [3])?
The GI50 was 5 µM.

And the CC50 (SK-MEL-28; [4])?
The CC50 was 50.1 µM.

And the GI50 (UACC-257; [3])?
The GI50 was 12.6 µM.

What about the CC50 (UACC-257; [4]) of the same compound?
The CC50 was 50.1 µM.

And the GI50 (DU-145; [3])?
The GI50 was 15.8 µM.

What about the CC50 (DU-145; [4]) of the same compound?
The CC50 was 63.1 µM.

And the GI50 (SF-268; [3])?
Its GI50 is 6.3 µM.

And the CC50 (SF-268; [4])?
Its CC50 is under 100 µM.

And the GI50 (NCI-H23; [3])?
Its GI50 is 5 µM.

And the CC50 (NCI-H23; [4])?
The CC50 was under 100 µM.

What about the GI50 (786-0; [3]) of the same compound?
The GI50 was 3.2 µM.

And the CC50 (786-0; [4])?
The CC50 was 39.8 µM.

And the GI50 (MALME-3M; [3])?
Its GI50 is 12.6 µM.

What about the CC50 (MALME-3M; [4]) of the same compound?
The CC50 was 50.1 µM.

What about the GI50 (SNB-19; [3]) of the same compound?
Its GI50 is 7.9 µM.

And the CC50 (SNB-19; [4])?
Its CC50 is 63.1 µM.

And the GI50 (SK-OV-3; [3])?
Its GI50 is 7.9 µM.

What about the CC50 (SK-OV-3; [4]) of the same compound?
The CC50 was 50.1 µM.

And the GI50 (RPMI-8226)?
Its GI50 is 2 µM.

And the GI50 (SR; [3])?
The GI50 was 3.2 µM.

And the CC50 (SR; [4])?
Its CC50 is 79.4 µM.

What about the GI50 (UO-31; [3]) of the same compound?
Its GI50 is 12.6 µM.

What about the CC50 (UO-31; [4]) of the same compound?
The CC50 was 50.1 µM.

What about the GI50 (MDA-N; [3]) of the same compound?
Its GI50 is 2.5 µM.

And the CC50 (MDA-N; [4])?
Its CC50 is 31.6 µM.

And the GI50 (SN12C; [3])?
Its GI50 is 7.9 µM.

And the CC50 (SN12C; [4])?
The CC50 was 63.1 µM.

What about the GI50 ([1]; read-out: Median Growth Inhibitory Concentration (GI50), Mean) of the same compound?
The GI50 was 6.7 µM.

What about the CC50 ([1]; read-out: Median Lethal Concentration (LC50), Mean) of the same compound?
The CC50 was 66 µM.

What about the activity at 5 µM [2, 7] of the same compound?
Its activity at 5 µM is 98%.

What about the activity at 20 µM [2, 7] of the same compound?
Its activity at 20 µM is 5%.

What about the “VEGF ELISA” value ([2]; 5 μM) of the same compound?
The value was 3989 pg/ml/well.

What about the VEGF ([2]; 5 μM, DMSO control 4197 (EF-25: 1045)) of the same compound?
Its VEGF is 4111 pg/mL.

What about the “VEGF ELISA” value ([2]; 20 μM) of the same compound?
Its value is 714 pg/ml/well.

And the VEGF ([2]; 20 μM, DMSO control 4197)?
Its VEGF is 221 pg/mL.

And the GI50 (HCC-2998; [3])?
Its GI50 is 3.2 µM.

What about the CC50 (HCC-2998; [4]) of the same compound?
The CC50 was 31.6 µM.

What about the GI50 (OVCAR-3; [3]) of the same compound?
The GI50 was 6.3 µM.

What about the CC50 (OVCAR-3; [4]) of the same compound?
The CC50 was 63.1 µM.

What about the GI50 (IGROV1; [3]) of the same compound?
Its GI50 is 7.9 µM.

And the CC50 (IGROV1; [4])?
Its CC50 is 79.4 µM.

What about the GI50 (SF-539; [3]) of the same compound?
The GI50 was 3.2 µM.

What about the CC50 (SF-539; [4]) of the same compound?
The CC50 was 31.6 µM.
